These results are taken from US20050288347A1, “Certain triazole-based compounds, compositions, and uses thereof” (priority 2004, published 2005).

“Also recorded” adds a separate entry of the source.

The target in one assay is protein kinase. In words: HTS ATP-utilizing enzyme assay, off-chip mobility-shift format (Caliper HTS 250). It is filed as biochemical, human. Conditions: kinase(s) for which the compound exhibits protein kinase inhibitory activity; test compound 10 μM; active = greater than three-sigma from the mean activity of inactive compounds. Put shortly:
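Single-point screen at 10 μM compound in HEPES pH 7.5 buffer with Triton X-100 and BSA, 2.5 h at 20–22 °C. Substrate-to-phosphopeptide ratio measured by off-chip microfluidic mobility shift; EDTA wells as 100% and DMSO wells as 0% control, hits called at three-sigma limits.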
In the case of `CCn1c(COc2cccc3ccccc23)nnc1SCC#N`, the Kinase result is “AURORA-A”.

Consider `COc1ccccc1-n1c(SCC(N)=O)nnc1-c1ccccc1O`, for which the Kinase result is recorded as “AURORA-A”.

Take `CCn1c(COc2cccc3ccccc23)nnc1SCC(=O)NCC1CCCO1` (stereo not drawn): the Kinase entry was “FYN”.

Consider `Cn1c(SCC(=O)CC(=O)Nc2ccccc2)nnc1-c1ccc(O)cc1`, for which the Kinase entry was “AURORA-A”.

On to `COc1ccccc1-c1nnc(S)n1Cc1ccccc1` [4-benzyl-5-(2-methoxyphenyl)-4H-1,2,4-triazole-3-thiol], for which the Kinase entry is “AURORA-A”.

`CCOc1ccc(NCc2nnc(SCC#N)n2-c2cccc(Cl)c2)cc1`: the Kinase result is “PDGFRR-α and FYN”.

Take `N#CCSc1nnc(CNc2ccc(Cl)cc2)n1Cc1ccccc1`: the Kinase result is “MSK1”.

Regarding `Cn1c(SCC(=O)c2ccc3c(c2)OCCO3)nnc1-c1ccc(S(=O)(=O)N2CCOCC2)cc1`, the Kinase entry is listed as “AURORA-A”.

Regarding `Cc1ccc(NCc2nnc(S)n2CC2CCCO2)cc1Cl` (stereo not drawn), the Kinase entry is given as “GSK3-β; also recorded: GSK3-α”.

In the case of `COc1ccc(NCc2nnc(SCC(=O)N(c3ccccc3)c3ccccc3)n2-c2ccccc2)cc1`, the Kinase result was “CHEK2; also recorded: PDGFRR-α; also recorded: FYN α”.

For `COc1cc([N+](=O)[O-])ccc1NC(=O)CSc1nnc(-c2ccncc2)n1Cc1ccco1`, the Kinase result is “FYN and PDGFRR-α and FLT-3”.

With `O=[N+]([O-])c1ccc(Sc2nnc(COc3ccccc3)n2-c2ccccc2)c2cccnc12` [8-nitro-5-(5-(phenoxymethyl)-4-phenyl-4H-1,2,4-triazol-3-ylthio)quinoline], the Kinase result is on record as “FLT-3; also recorded: PDGFRR-α”.

Consider `CCOc1ccc2nc(NC(=O)CSc3nnc(-c4ccncc4)n3CC3CCCO3)sc2c1` (stereo not drawn), for which the Kinase result is “PDGFRR-α and GSK3-α and ABL1”.

In the case of `Cn1c(SCC(=O)Nc2nc3c(s2)CCCC3)nnc1-c1ccc(O)cc1`, the Kinase entry is recorded as “GSK3-β; also recorded: GSK3-α; also recorded: CDK2-cyclinE”.

Turning to `N#CCSc1nnc(-c2cccnc2)n1Cc1ccccc1` [2-(4-benzyl-5-(pyridin-3-yl)-4H-1,2,4-triazol-3-ylthio)acetonitrile], the Kinase entry is reported as “AURORA-A”.

`COc1ccccc1-c1nnc(N)[nH]1` [5-(2-methoxyphenyl)-4H-1,2,4-triazol-3-amine]: the Kinase entry is on record as “AURORA-A; also recorded: CDK2/CyclinE; also recorded: CHEK2”.

As for `Cc1ccc(-c2nnc(SC(C)C(=O)O)n2-c2ccc(C)cc2)cc1` (stereo not drawn) [2-(4,5-dip-tolyl-4H-1,2,4-triazol-3-ylthio)propanoic acid], the Kinase result is reported as “DAPK1”.

With `Cc1ccc(-n2c(SCC#N)nnc2-c2ccncc2)cc1` [2-(5-(pyridin-4-yl)-4-p-tolyl-4H-1,2,4-triazol-3-ylthio)acetonitrile], the Kinase entry is “AURORA-A; also recorded: GSK3-β; also recorded: GSK3-α”.

Take `O=C(CSc1nnc(CCN2CCOCC2)n1-c1ccc(F)cc1)c1ccccc1`: the Kinase result was “FYN”.

For `COc1ccc(NCc2nnc(SC(C)C(=O)O)n2-c2ccccc2)cc1` (stereo not drawn), the Kinase entry was “FYN( and PDGFRR-α”.

`CCOC(=O)c1sc(NC(=O)CSc2nnc(-c3ccc(O)cc3)n2CC2CCCO2)nc1C` (stereo not drawn): the Kinase entry is listed as “GSK3-β; also recorded: GSK3-α”.

With `CCOc1ccc(NCc2nnc(SCC(=O)Nc3cccc(C(C)=O)c3)n2-c2ccccc2)cc1`, the Kinase result is “FYN and PDGFRR-α and FLT-3”.

For the molecule `Cn1c(S)nnc1COc1ccc(Br)cc1` [5-((4-bromophenoxy)methyl)-4-methyl-4H-1,2,4-triazole-3-thiol], the Kinase entry is “CDK2-cyclinE”.

For `COc1ccccc1OCc1nnc(S)n1Cc1ccccc1` [4-benzyl-5-((2-methoxyphenoxy)methyl)-4H-1,2,4-triazole-3-thiol], the Kinase result is on record as “AURORA-A”.

Take `CCn1c(SCC(=O)Nc2cc(OC)c(OC)cc2C(=O)O)nnc1-c1ccc(O)cc1`: the Kinase entry is “AURORA-A”.

Turning to `Cn1c(SCC(=O)Nc2nccs2)nnc1-c1ccc(S(=O)(=O)N2CCOCC2)cc1`, the Kinase result is recorded as “GSK3-α; also recorded: GSK3-β”.

For `Cc1ccc(-n2c(S)nnc2-c2ccccc2O)cc1` [2-(5-mercapto-4-p-tolyl-4H-1,2,4-triazol-3-yl)phenol], the Kinase entry is “AURORA-A”.

In the case of `Cc1nc(NC(=O)CSc2nnc(C3CC3)n2C)sc1C`, the Kinase entry is recorded as “GSK3-β; also recorded: GSK3-α”.

Regarding `CCOc1ccc2nc(NC(=O)CSc3nnc(-c4ccncc4)n3CCCOC)sc2c1`, the Kinase entry is recorded as “GSK3-β; also recorded: PDGFRR-α; also recorded: GSK3-α”.

With `CCOC(=O)c1cccc(NC(=O)CSc2nnc(CNc3ccc(OC)cc3)n2-c2ccc(OC)cc2)c1`, the Kinase entry is recorded as “AURORA-A; also recorded: PDGFRR-α; also recorded: CHEK2”.

Consider `COc1ccc(-c2nnc(SCC(=O)N3CCOCC3)n2-c2ccccc2)cc1`, for which the Kinase entry was “INSR and PRAK”.

Turning to `COc1ccc(-n2c(CNc3ccccc3Cl)nnc2SCC(=O)Nc2ccc([N+](=O)[O-])cc2)cc1`, the Kinase result is “CHEK2”.

Regarding `O=C(CSc1nnc(CNc2ccc(F)cc2)n1CC1CCCO1)N1CCCc2ccccc21` (stereo not drawn), the Kinase entry is on record as “AKT1”.

On to `COCCCn1c(SCC(=O)N2CCCCC2)nnc1-c1ccc(C(C)(C)C)cc1`, for which the Kinase result is given as “CDK5”.

For the molecule `COc1ccc(-c2nnc(SCC(=O)Nc3cccc(NC(=O)c4ccco4)c3)n2-c2ccccc2)cc1`, the Kinase result is “PRAK and CHEK2 and PKA”.

With `CCOC(=O)CN(C(=O)CSc1nnc(CNc2ccc(F)cc2)n1-c1ccccc1)c1ccccc1`, the Kinase entry is “LCK”.

In the case of `O=C(CSc1nnc(-c2ccco2)n1-c1ccccc1)NCCc1ccccc1` [2-(5-(furan-2-yl)-4-phenyl-4H-1,2,4-triazol-3-ylthio)-N-phenethylacetamide], the Kinase entry is recorded as “AKT1”.

Turning to `Cc1cc(OCc2nnc(SC(C)C(=O)O)n2-c2ccccc2)ccc1Cl` (stereo not drawn), the Kinase result is reported as “AURORA-A”.

Staying with this assay, now noted: test compound 10 μM; active = activity greater than three-sigma from the mean of the predominately inactive population for that enzyme.
For the molecule `CCOc1ccc(NCc2nnc(SCCN3CCOCC3)n2-c2ccc(OC)cc2)cc1`, the “protein kinase against which the compound exhibits inhibitory activity (Table 3)” value is reported as “FYN”.

Consider `O=C(CSc1nnc[nH]1)N1c2ccccc2CCc2ccccc21`, for which the “protein kinase against which the compound exhibits inhibitory activity (Table 3)” value was “LCK”.

As to `CCOC(=O)c1ccc(CSc2nnc(-c3ccccc3)[nH]2)o1` [ethyl 5-((5-phenyl-4H-1,2,4-triazol-3-ylthio)methyl)furan-2-carboxylate], the “protein kinase against which the compound exhibits inhibitory activity (Table 3)” value is “AURORA-A; also recorded: FLT-3; also recorded: GSK3-β”.

Take `CCCCSc1nnc(-c2cccc(C(F)(F)F)c2)[nH]1` [3-(butylthio)-5-(3-(trifluoromethyl)phenyl)-4H-1,2,4-triazole]: the “protein kinase against which the compound exhibits inhibitory activity (Table 3)” value is on record as “AURORA-A; also recorded: FLT-3; also recorded: GSK3-α”.

Regarding `COc1ccc(-n2c(CNc3ccc(F)cc3)nnc2SC)cc1`, the “protein kinase against which the compound exhibits inhibitory activity (Table 3)” value is listed as “AKT1”.

Take `Cc1cccc(-c2nnc(SCCN3CCOCC3)n2C)c1` [4-(2-(4-methyl-5-m-tolyl-4H-1,2,4-triazol-3-ylthio)ethyl)morpholine]: the “protein kinase against which the compound exhibits inhibitory activity (Table 3)” value was “AKT1”.

On to `NC(=O)CSc1nnc(-c2ccc(OC(F)(F)F)cc2)[nH]1`, for which the “protein kinase against which the compound exhibits inhibitory activity (Table 3)” value is listed as “AURORA-A; also recorded: GSK3-β; also recorded: DYRK2”.

For the molecule `O=C(O)c1ccc(CSc2nnc(-c3cccnc3)[nH]2)cc1` [4-((5-(pyridin-3-yl)-4H-1,2,4-triazol-3-ylthio)methyl)benzoic acid], the “protein kinase against which the compound exhibits inhibitory activity (Table 3)” value was “AURORA-A; also recorded: DYRK2”.

As for `Cn1c(SCc2ccc(Cl)cc2)nnc1-c1cccnc1` [3-(5-(4-chlorobenzylthio)-4-methyl-4H-1,2,4-triazol-3-yl)pyridine], the “protein kinase against which the compound exhibits inhibitory activity (Table 3)” value is “CHEK2”.

With `Cc1cc(OCc2nnc(SCCC(=O)O)n2C)ccc1Cl`, the “protein kinase against which the compound exhibits inhibitory activity (Table 3)” value is “AURORA-A”.

With `CCCCSc1nnc(-c2cccnc2)[nH]1`, the “protein kinase against which the compound exhibits inhibitory activity (Table 3)” value was “AURORA-A; also recorded: FLT-3; also recorded: c-TAK1”.

Regarding `COc1ccccc1-n1c(SCC(=O)Nc2ccc(Cl)cc2)nnc1-c1ccccc1O`, the “protein kinase against which the compound exhibits inhibitory activity (Table 3)” value was “KIT and AURORA-A”.

For the molecule `Cc1ccc(NCc2nnc(SCc3nnc(-c4ccccc4)o3)n2CC2CCCO2)c(C)c1` (stereo not drawn), the “protein kinase against which the compound exhibits inhibitory activity (Table 3)” value is given as “SYK”.

For the molecule `COc1ccc(-c2nnc(SCCN3CCOCC3)[nH]2)cc1` [4-(2-(5-(4-methoxyphenyl)-4H-1,2,4-triazol-3-ylthio)ethyl)morpholine], the “protein kinase against which the compound exhibits inhibitory activity (Table 3)” value is reported as “GSK3-α; also recorded: AURORA-A; also recorded: GSK3-β”.

Take `Clc1ccc(CSc2nnc(-c3ccncc3)n2Cc2ccco2)cc1`: the “protein kinase against which the compound exhibits inhibitory activity (Table 3)” value is “MSK1 and MSK2 and AKT3”.

Take `CCOC(=O)CCSc1nnc(-c2cccnc2)[nH]1` [ethyl 3-(5-(pyridin-3-yl)-4H-1,2,4-triazol-3-ylthio)propanoate]: the “protein kinase against which the compound exhibits inhibitory activity (Table 3)” value is given as “AURORA-A; also recorded: DYRK2”.
